Experimental data taken from PMC9253268 (Frontiers in Immunology, 2022).
Where two headings read alike, the source gives them in different places.

Experiments:
[1] = Chemical profiling of BHGZD in sera (UFLC-Q-TOF-MS/MS); settings: 30 min after the treatment of BHGZD
Source text: (§1) A rapid, sensitive, and reliable method by the UFLC-Q-TOF-MS/MS system was used to identify the chemical profiling of BHGZD as described in Supplementary Materials Section 9 ([30]). The reference standards of these compounds ( Supplementary Table S2 ) were purchased from Chengdu Must Bio-technology Co., Ltd. (Chengdu, China), the National Institute for the Control of Pharmaceutical and Biological Products (Beijing, China), and Chengdu DeSiTe Biological Technology Co., Ltd. (Chengdu, China).
(§2) Sciex, Forster City, USA) with electrospray ionization source (ESI). Kinetex C18 column
(§3) (Phenomenex, 3.0×150 mm, 2.6μm, 100Å) was used to perform chromatographic
(§4) separation with a flow rate of 0.3mL/min at 40℃. A linear gradient program with mobile
(§5) phase system including solvent A (deionized water with 0.1% formic acid, v/v) and solvent
(§6) B (methanol) was described in details: solvent B (5~95%) for 40min, isocratic eluted at
(§7) 95% B for 5min，95%~5% B (40-45min), followed a post-run of 2min to equilibrate the
(§8) The instrumental settings of Q-TOF-MS/MS were described in the previous study
(§9) (9).Samples were analyzed in both positive and negative ionization modes with scanning
(§10) mas-to-charge (m/z) range from 50 to 1500. Data was collected in information-dependent
(§11) acquisition (IDA) mode and analyzed by PeakView® 2.2 software (AB Sciex, Foster City,
(§12) Chemical identifications were based on reference standards and mass spectral
(§13) library (Natural Products HR-MS/MS Spectral Library, Version 1.0, AB Sciex, Forster City,

[2] = rat, in vivo
Source text: as §1, §2, §3, §4, §5, §6, §7, §8, §9, §10, §11, §12, §13

[3] = biological target: T1, recombinant AKT1 protein (Homo sapiens, UniProt P31749); experiment: Surface plasmon resonance (SPR) binding assay; settings: Biacore 8K, read-out: mean KD, MG–AKT
T1 construct: His tag; purchased Abcam ab116412
Experimental: To confirm the binding affinity of recombinant AKT1 protein and MG, SPR assay was performed with Biacore 8K (Biacore, Cytiva), and the K D value was calculated using the Biacore 8K evaluation software 2.0 (GE Healthcare). Detailed information on SPR assay is provided in Supplementary Materials Section 11 . […]
compound was greater than 9.0×106cm/s and 40% which indicated drug-like […]
Section 11 Surface plasmon resonance (SPR) assay
SPR binding assays were analyzed with Biacore 8K (Biacore, Cytiva). Materials and reagents used in SPR assays were purchased from Cytiva. The histidine-tagged AKT1 (Cat No. ab116412, Abcam, Cambridge, UK) was immobilized on the surface of Carboxymethylated (CM5) sensor chip through the standard amino coupling method. The carboxyl groups of the sensor surface were activated by injection of a solution containing 0.2M N-ethyl-N9-(3-dimethylaminopropyl) carbodiimide (EDC) and 0.05M N-hydroxysuccinimide (NHS), AKT1 in 10mM sodium acetate buffer was then injected at a flow rate of 10μL/min to couple to the sensor surface, and the remaining active sites in the […]
Sensor chips were primed twice with degassed physiological running buffer (PBS buffer). A reference flow cell was activated and blocked in the absence of AKT1. […]

[4] = In vivo pharmacokinetic analysis of MG and CA after oral BHGZD (UHPLC-QTRAP-MS/MS); settings: rat plasma after oral BHGZD 21.4 g/kg each day, n = 3
Experimental: The pharmacokinetic parameters were calculated by Drug and Statistic software (Shanghai, China). Detailed information on the collection of blood samples and UHPLC-QTRAP-MS/MS conditions is provided in Supplementary Materials Section 13 . […]
Section 13 Pharmacokinetic analysis […]
administration of BHGZD, ultra-fast liquid chromatography coupled with triple quadrupole-linear ion trap composite mass spectrometry (UHPLC-QTRAP-MS/MS) system was […]
Bioanalytical Method Validation issued by Chinese Pharmacopoeia Commission in 2020.
The pharmacokinetic parameters were calculated by Drug and Statistic software […]
1) Collection of blood samples
Male Lewis rats (n=6, 6-8 weeks-old, 200±20g in weight) were purchased from Beijing Vital River Laboratory Animal Technology Co., Ltd. (SCCK 2016-0006, Beijing, China; n=3 per group, including normal control group and normal control+BHGZD treatment group).
Diet was prohibited for 12h before the experiment but water was freely available. Blood samples (~0.25mL) were collected from the retinal venous plexus into heparinized 1.5mL polythene tubes before administration and 0, 0.25, 0.5, 1, 2, 3, 4, 6, 8,12 and 24h after administration of BHGZD. The plasma samples were obtained after centrifuging at 12000rpm for 15min, and stored at -20℃ prior to analysis.
2) UHPLC-QTRAP-MS/MS conditions
Quantification analysis were performed on an ultra-high-performance liquid chromatography (Shimadzu Corp., Japan) tandem ion trap quadrupole QTRAP 6500 plus mass spectrometry (AB Sciex, USA). Chromatographic separation was conducted using a Poroshell 120 EC-C18 column (3.0×50mm, 2.7μm) at 40℃. The mobile phase was consisted of 0.1% formic acid–water (v/v, A) and methanol (B) and elution program were:
Mass spectrometry detector were conducted in negative mode and the detecting parameters were set as follows: curtain gas, 35 psi; collision gas, medium; ionspray voltage, 4500 V; temperature, 550℃; ion source gas 1 and 2, 55psi. Quantitative ion pairs were optimized for MG: m/z 421.2-301.1 (declustering potential: 63V, CE: 30eV) and for […]
Data acquisition and analysis

[5] = system: RAW264.7 cells; experiment: Cell viability, CCK-8 assay; type: cell-based, mouse; settings: 0.21–6.74 ng/ml MG or 0.02–0.52 ng/ml CA treatment alone
Experimental: Cell viability was analyzed with the cell counting kit-8 (CCK-8) assay kit (Beyotime Biotechnology, Shanghai, China) as described in Supplementary Materials Section 16 .
Section 16 Cell proliferation assay
Cell viability was analyzed with Cell Counting Kit-8 (CCK-8) assay kit (Beyotime Biotechnology, China). Raw264.7 cells were seeded into 96-well plate, and after […]
solution was added to each well. The absorbance was measured after 4h of incubation at […]
Section 17 Flow cytometry
To identify and quantify of pyroptosis population of Raw264.7 cells, FITC Apoptosis Detection kit I staining with both the Annexin V-fluorescein isothiocyanate and propidium iodide (PI, BD Biosciences, San Jose, CA, USA) was used in accordance with manufacturer's guidelines. Briefly, Raw264.7 cells was washed twice with cold PBS and then resuspended in 1×binding buffer at a concentration of 1x10^6 cells/mL. Then, 100µL of the solution (1x10^5 cells) was transferred to a 5 mL culture tube. Subsequently, 5µL of FITC Annexin V and 5µL PI were added into cultured tube, and vortexed and incubated for 15 min at room temperature in the dark. Finally, 400µL 1×binding buffer was added into each tube, and analyzed by flow cytometry (ACEA Bioscience, San Diego, CA, USA) and NovoExpress 1.4.1 software (ACEA Bioscience, San Diego, CA, USA) within 1h.

[6] = system: RAW264.7 cells; experiment: LPS/ATP-induced pyroptosis in RAW264.7 cells (flow cytometry, FAM-FLICA, immunofluorescence, Western blotting, ELISA); type: cell-based, mouse
Source text: (§14) Mouse macrophage cell line (RAW264.7 cells, Bio-Swamp, Wuhan, China) and fibroblast-like synoviocytes in patients with RA (MH7A cells, Riken cell bank, Ibaraki, Japan) at passage numbers four to eight were used in the current experiment validations.
(§15) The concentration of DMSO was less than 1‰ of the solution for the in vitro experiment.
Fluorescence images were visualized and photographed with a confocal microscope (Zeiss LSM 880, Carl Zeiss, Jena, Germany).
The images were visualized and photographed with a confocal microscope (Zeiss LSM 880, Carl Zeiss, Jena, Germany) or an inverted fluorescence microscope (MF53, MSHOT, Guangzhou, China).
(§16) To evaluate the therapeutic effects of two BACs from BHGZD on the regulation of the “immune-inflammation” system, the levels of cytokines, proteins, and LDH release in RAW264.7 and MH7A cellular supernatant, as well as the sera of AIA-M rats were determined using enzyme-linked immunosorbent assay (ELISA) to assess the integrity of membranes in accordance with the manufacturer’s guidelines.
Raw264.7 cells were maintained in DMEM (Hyclone, Logan, UT, USA), supplemented
100μg/mL streptomycin and 2mM L-glutamine (TBD, Tianjin, China) in a humidified 5%
CO2 incubator at the temperature of 37℃. The Raw264.7 cells at passage numbers four
to eight were used in the current experiment validations.
MH7A cells were cultured in sterile synoviocyte growth medium (Cell Applicatio ns, Inc.,
L-glutamine (TBD, Tianjin, China) in a humidified 5% CO2 incubator at the temperature of
37℃. MH7A at passage numbers four to eight were used in the current experiment
(§17) To induce a conventional NLRP3 inflammasome activation, Raw264.7cells was induced
(§18) with 0.2μg/mL lipopolysaccharide [LPS, Escherichia coli (O111:B4), Sigma-Aldrich, St
(§19) Louis, MO, USA] for 4h, followed with a 3mM ATP adenosine triphosphate (ATP disodium
(§20) salt hydrate, Sigma-Aldrich, St Louis, MO, USA) for 1h of incubation at 37℃ with 5% CO2
(§21) For MH7A cells LPS/ATP-induced pyrotosis, MH7A cells were induced with 1μg/mL LPS
(§22) for 6h, followed with a 3mM ATP for 1h of incubation at 37℃ with 5% CO2 (11).

[7] = system: MH7A cells; experiment: LPS/ATP-induced pyroptosis in MH7A cells (TUNEL, immunofluorescence, Western blotting, ELISA); type: cell-based, human
Source text: as §14
The conventional NLRP3 inflammasome activation cellular model was induced by lipopolysaccharide [LPS, Escherichia coli (O111:B4), Sigma-Aldrich, St Louis, MO, USA] and adenosine triphosphate (ATP disodium salt hydrate, Sigma-Aldrich, St Louis, MO, USA) as in our previous study ([22]) ( Supplementary Materials Section 15 ).
as §15
The occurrence of pyroptosis in both MH7A cells and synovium tissues in AIA-M rats was determined by in situ TUNEL staining (TUNEL Andy Fluor™ 594 Apoptosis Detection Kit, ABP Biosciences, Wuhan, China) in accordance with the manufacturer’s protocol. Fluorescence images were visualized and photographed with inverted fluorescence microscopes (MF53, MSHOT, Guangzhou, China; Olympus, BX51, Tokyo, Japan).
Double fluorescence staining was performed as described previously ([22]) ( Supplementary Materials Section 20 ). The images were visualized and photographed with a confocal microscope (Zeiss LSM 880, Carl Zeiss, Jena, Germany) or an inverted fluorescence microscope (MF53, MSHOT, Guangzhou, China).
To evaluate the regulation of BHGZD on the candidate targets in arthritic tissue samples, as well as RAW264.7 and MH7A cells, Western blotting analysis was carried out following the protocol as in our previous studies ([21], [24], [29]). TLR4, phospho-PI3K (p-PI3K), PI3K, p-AKT, p-NFκB-p65, NFκB-p65, NLRP3, ASC, caspase-1, the N-terminal domain of GSDMD (GSDMD-NT), and IL-1β antibodies were used as shown in Supplementary Table S3 . GAPDH (GAPDH Mouse monoclonal antibody, Abcam, Cambridge, UK) and β-actin (Anti-beta-Actin/β-Actin Antibody, Boster Biological Technology, California, USA) were used as loading controls for arthritic tissue samples and cultured cells, respectively.
as §16, §17, §18, §19, §20, §21, §22

[8] = LPS/ATP-induced RAW264.7 cells, all p < 0.05
[9] = LPS/ATP-induced, BHGZD 28.54 μg/ml, MG 1.69 ng/ml, CA 0.13 ng/ml, 24 h
[10] = LPS/ATP-induced MH7A cells, all p < 0.05

T1 sequence (P31749 whole entry): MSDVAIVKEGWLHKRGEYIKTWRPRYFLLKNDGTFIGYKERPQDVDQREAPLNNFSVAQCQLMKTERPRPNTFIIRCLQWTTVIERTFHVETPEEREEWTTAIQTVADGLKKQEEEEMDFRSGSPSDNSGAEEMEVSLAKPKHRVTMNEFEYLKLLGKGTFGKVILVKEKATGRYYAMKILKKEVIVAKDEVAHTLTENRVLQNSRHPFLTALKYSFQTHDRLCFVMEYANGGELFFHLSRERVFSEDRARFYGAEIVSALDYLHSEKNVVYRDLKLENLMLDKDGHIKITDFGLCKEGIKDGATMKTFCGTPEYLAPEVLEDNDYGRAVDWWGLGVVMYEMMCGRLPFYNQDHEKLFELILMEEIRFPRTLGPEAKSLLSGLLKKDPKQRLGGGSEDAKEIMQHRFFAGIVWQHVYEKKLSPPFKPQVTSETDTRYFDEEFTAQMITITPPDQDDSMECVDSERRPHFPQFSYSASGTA

O=c1cc(-c2ccc(O)cc2)oc2c([C@@H]3O[C@H](CO)[C@@H](O)[C@H](O)[C@H]3O)c(O)c([C@@H]3OC[C@H](O)[C@H](O)[C@H]3O)c(O)c12 [isoschaftoside]
quantitative detection in sera after the treatment of BHGZD [1]: detected

COc1ccc(-c2coc3cc(O)ccc3c2=O)cc1 [formononetin]
quantitative detection in sera after the treatment of BHGZD [1]: detected

anemarrhensaponin I
quantitative detection in sera after the treatment of BHGZD [1]: detected

O=c1c2cc(O[C@@H]3O[C@H](CO)[C@@H](O)[C@H](O)[C@H]3O)c(O)cc2oc2cc(O)c([C@@H]3O[C@H](CO)[C@@H](O)[C@H](O)[C@H]3O)c(O)c12 [neomangiferin]
quantitative detection in sera after the treatment of BHGZD [1]: detected

COc1cc2c(=O)c3c(O)c([C@@H]4O[C@H](CO)[C@@H](O)[C@H](O)[C@H]4O)c(O)cc3oc2cc1O [7-O-methyl mangiferin]
quantitative detection in sera after the treatment of BHGZD [2]: detected

O=C1C[C@@H](c2ccc(O)cc2)Oc2cc(O)ccc21 [liquiritigenin]
quantitative detection in sera after the treatment of BHGZD [1]: detected

O=c1cc(-c2ccc(O)cc2)oc2c([C@@H]3O[C@H](CO)[C@@H](O)[C@H](O)[C@H]3O)c(O)cc(O)c12 [vitexin]
quantitative detection in sera after the treatment of BHGZD [1]: detected

O=C(/C=C/c1ccc(O[C@@H]2O[C@H](CO)[C@@H](O)[C@H](O)[C@H]2O)cc1)c1ccc(O)cc1O [isoliquiritin]
quantitative detection in sera after the treatment of BHGZD [1]: detected

O=c1c2cc(O)c(O)cc2oc2cc(O)c([C@@H]3O[C@H](CO)[C@@H](O)[C@H](O)[C@H]3O)c(O)c12 [MG, mangiferin]
Kd [3]: 38.3 µM
Cmax ([4]; male, Lewis, rat, plasma, po, 21.4 g/kg, non-compartment model, read-out: Cmax): 132 ng/mL
AUC(0-t) ([4]; male, Lewis, 0-24 h): 578 ± 183 ng·h/mL
half-life ([4]; male, Lewis, apparent elimination half-life, read-out: t1/2z (converted)): 1.26 ± 0.23 h
AUC(0-inf) ([4]; male, Lewis): 579 ± 182 ng·h/mL
MRT last ([4]; male, Lewis, read-out: MRT(0-t)): 4.23 ± 0.3 h
MRT inf ([4]; male, Lewis, read-out: MRT(0-∞)): 4.25 ± 0.28 h
Tmax ([4]; male, Lewis, non-compartment model): 4 h
Cmax ([4]; non-compartment model, listed as Mangiferin (MG)): 132.07 ± 44.67 ng/mL
cell viability (CCK8) [5]: no cell toxicity
GSDMD-NT ([6]; LPS/ATP-induced RAW264.7 cells, Western blotting): decreased
expression levels of NLRP3, ASC, and caspase-1 [6, 8]: reduced
levels of IL-1β, IL-18, and LDH release in the supernatant [6, 8]: reduced
PI positive cell rate ([6]; LPS/ATP-induced, 1.69 ng/ml MG, 0.13 ng/ml CA, 24 h, inferior to BHGZD, all p < 0.05): prominently reduced
number of FLICA-positive RAW264.7 cells [6, 9]: reduced
inhibition on cell pyroptosis induced by LPS/ATP, alone versus combination ([6]; RAW264.7 and MH7A cells, all p < 0.05): weaker than that in the two-BAC combination treatment group
GSDMD-NT ([7]; LPS/ATP-induced MH7A cells, Western blotting): decreased
expression levels of NLRP3, ASC, and caspase-1 [7, 10]: reduced
levels of IL-1β, IL-18, and LDH release in the supernatant [7, 10]: reduced
number of TUNEL-positive MH7A cells [7, 9]: reduced
quantitative detection in sera after the treatment of BHGZD [1]: detected

O=c1cc(-c2ccc(O)cc2)oc2cc(O)c([C@@H]3O[C@H](CO)[C@@H](O)[C@H](O)[C@H]3O)c(O)c12 [isovitexin]
quantitative detection in sera after the treatment of BHGZD [1]: detected

C[C@@H](CC[C@@]1(O)O[C@H]2C[C@H]3[C@@H]4CC[C@@H]5C[C@@H](O[C@@H]6O[C@H](CO)[C@H](O)[C@H](O)[C@H]6O[C@@H]6O[C@H](CO)[C@@H](O)[C@H](O)[C@H]6O)CC[C@]5(C)[C@H]4CC[C@]3(C)[C@H]2[C@@H]1C)CO[C@@H]1O[C@H](CO)[C@@H](O)[C@H](O)[C@H]1O [timosaponin B II]
quantitative detection in sera after the treatment of BHGZD [1]: detected

CC1(C)[C@@H](O[C@H]2O[C@H](C(=O)O)[C@@H](O)[C@H](O)[C@H]2O[C@@H]2O[C@H](C(=O)O)[C@@H](O)[C@H](O)[C@H]2O)CC[C@]2(C)[C@H]3C(=O)C=C4[C@@H]5C[C@@](C)(C(=O)O)CC[C@]5(C)CC[C@@]4(C)[C@]3(C)CC[C@@H]12 [glycyrrhizic acid]
quantitative detection in sera after the treatment of BHGZD [1]: detected
